The target of the assay is T1, human bradykinin 1 receptor (B1R) (Homo sapiens, UniProt P46663).
T1 construct: expressed in transfected cells; host or cells: CHO K1 cells
T1 sequence (P46663 1-353): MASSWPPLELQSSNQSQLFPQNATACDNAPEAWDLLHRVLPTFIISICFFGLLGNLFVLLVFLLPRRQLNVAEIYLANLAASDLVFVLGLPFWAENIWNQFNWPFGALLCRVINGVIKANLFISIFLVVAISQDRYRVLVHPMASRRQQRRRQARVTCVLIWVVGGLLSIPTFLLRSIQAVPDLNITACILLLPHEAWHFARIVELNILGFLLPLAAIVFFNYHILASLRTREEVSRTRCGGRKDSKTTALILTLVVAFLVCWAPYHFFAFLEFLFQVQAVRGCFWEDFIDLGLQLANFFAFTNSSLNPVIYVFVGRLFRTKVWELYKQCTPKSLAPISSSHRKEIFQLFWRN
Description: Functional investigation on the human bradykinin 1 receptor (B1R), Ca2+ FLIPR assay in CHO K1 hB1R cells. It counts as cell-based. The following applies: B1R antagonism human; test substance 10 μM; Ca2+ FLIPR, CHO K1 hB1R cells. A digest of the protocol:
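Peak Ca2+-dependent fluorescence in B1R-transfected CHO K1 cells measures antagonism of an EC80 agonist challenge given 10-20 min after compound. Agonist is Lys-Des-Arg9-bradykinin for human, Des-Arg9-bradykinin for rat receptor.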

Take `CN(C)C(c1ccc(F)cc1)C1CCC(NC(=O)COCCN(C)S(=O)(=O)c2c(Cl)cccc2Cl)CC1` (stereo not shown) [Example 363]: the “B1R Ant. h [10 μM] % Inhibition” value is listed as 80%.

Consider `CN(C)C(c1cccc(F)c1)C1CCC(NC(=O)COCCN2CCN(S(=O)(=O)c3ccccc3)CC2)CC1` (stereo not shown) [Example 364], for which the “B1R Ant. h [10 μM] % Inhibition” value is reported as 0%.

On to `COc1cc(C)c(S(=O)(=O)N2CCC(OCC(=O)NC3CCC(C(c4ccc(F)cc4)N(C)C)CC3)C2)c(C)c1C` (stereo not shown) [Example 365], for which the “B1R Ant. h [10 μM] % Inhibition” value stood at 48%.

Consider `COc1cc(C)c(S(=O)(=O)N2CCN(CCOCC(=O)NCC3CCC(C(c4ccc(F)cc4)N(C)C)CC3)CC2)c(C)c1C` (stereo not shown) [Example 366], for which the “B1R Ant. h [10 μM] % Inhibition” value amounted to 55%.

For the compound `COc1ccc(S(=O)(=O)N2CCCCC2COCC(=O)NCC2CCC(C(c3ccc(Cl)cc3)N(C)C)CC2)cc1OC` (stereo not shown) [Example 367], the “B1R Ant. h [10 μM] % Inhibition” value is −9%.

Regarding `CN(C)C(c1ccc(F)cc1)C1CCC(CCNC(=O)COCCN(C)S(=O)(=O)c2cccc(C(F)(F)F)c2)CC1` (stereo not shown) [Example 368], the “B1R Ant. h [10 μM] % Inhibition” value worked out at 39%.

As for `CN(C)C(c1ccc(F)cc1)C1CCC(NC(=O)COC2CCN(S(=O)(=O)c3ccc(Cl)cc3)C2)CC1` (stereo not shown) [Example 370], the “B1R Ant. h [10 μM] % Inhibition” value is −14%.

Take `Cc1ccc(S(=O)(=O)N2CCC(OCC(=O)NC3CCC(C(c4ccc(F)cc4)N(C)C)CC3)C2)cc1` (stereo not shown) [Example 371]: the “B1R Ant. h [10 μM] % Inhibition” value came out at 7%.

With `COc1cc(C)c(S(=O)(=O)N(CCOCC(=O)NC2CCC(C(c3cccc(F)c3)N(C)C)CC2)Cc2ccccc2)c(C)c1` (stereo not shown) [Example 372], the “B1R Ant. h [10 μM] % Inhibition” value is listed as 65%.

`COc1ccc(S(=O)(=O)N2Cc3ccccc3CC2COCC(=O)NCC2CCC(C(CCc3ccccc3)N(C)C)CC2)cc1` (stereo not shown) [Example 373]: the “B1R Ant. h [10 μM] % Inhibition” value was found to be 98%.

For the compound `COc1ccc(S(=O)(=O)N2Cc3ccccc3CC2COCC(=O)NCCC2CCC(C(c3ccc(Cl)cc3)N(C)C)CC2)cc1` (stereo not shown) [Example 374], the “B1R Ant. h [10 μM] % Inhibition” value came to 18%.

Take `CN(C)C(c1ccc(Cl)cc1)C1CCC(CCNC(=O)COC2CCN(S(=O)(=O)c3ccccc3)C2)CC1` (stereo not shown) [Example 375]: the “B1R Ant. h [10 μM] % Inhibition” value was 2%.

With `CN(C)C(c1cccc(F)c1)C1CCC(CCNC(=O)COC2CCN(S(=O)(=O)c3ccccc3)C2)CC1` (stereo not shown) [Example 376], the “B1R Ant. h [10 μM] % Inhibition” value is recorded as −17%.

As to `CN(C)C(c1ccc(F)cc1)C1CCC(CCNC(=O)COCCN(C)S(=O)(=O)c2ccc(Cl)cc2)CC1` (stereo not shown) [Example 377], the “B1R Ant. h [10 μM] % Inhibition” value was determined as 28%.

With `COc1cc(C)c(S(=O)(=O)N(C)CCOCC(=O)NCCC2CCC(C(c3ccc(Cl)cc3)N(C)C)CC2)c(C)c1` (stereo not shown) [Example 378], the “B1R Ant. h [10 μM] % Inhibition” value was 104%.

Take `COc1ccc(S(=O)(=O)N(C)CCOCC(=O)NCC2CCC(C(c3ccc(Cl)cc3)N(C)C)CC2)cc1OC` (stereo not shown) [Example 379]: the “B1R Ant. h [10 μM] % Inhibition” value was −5%.

In the case of `CN(C)C(c1ccc(F)cc1)C1CCC(NC(=O)COC2CCN(S(=O)(=O)c3ccc(F)cc3)C2)CC1` (stereo not shown) [Example 381], the “B1R Ant. h [10 μM] % Inhibition” value is reported as −19%.

As to `CN(C)C(c1ccc(F)cc1)C1CCC(NC(=O)COCCN(C)S(=O)(=O)c2c(Cl)cc(Cl)cc2Cl)CC1` (stereo not shown) [Example 382], the “B1R Ant. h [10 μM] % Inhibition” value came to 103%.

`COc1ccc(S(=O)(=O)N2CCCCC2CCOCC(=O)NCCC2CCC(C(c3ccc(Cl)cc3)N(C)C)CC2)cc1` (stereo not shown) [Example 383]: the “B1R Ant. h [10 μM] % Inhibition” value stood at 77%.

For the compound `CN(C)C(c1ccc(Cl)cc1)C1CCC(CNC(=O)COC2CCN(S(=O)(=O)c3ccc(Cl)cc3)C2)CC1` (stereo not shown) [Example 384], the “B1R Ant. h [10 μM] % Inhibition” value stood at 31%.

Consider `CN(C)C(c1ccc(F)cc1)C1CCC(CCNC(=O)COCCN(C)S(=O)(=O)c2c(Cl)cc(Cl)cc2Cl)CC1` (stereo not shown) [Example 386], for which the “B1R Ant. h [10 μM] % Inhibition” value is given as 104%.

For `COc1cc(C)c(S(=O)(=O)N2CCN(CCOCC(=O)NCCC3CCC(C(c4ccc(F)cc4)N(C)C)CC3)CC2)c(C)c1C` (stereo not shown) [Example 387], the “B1R Ant. h [10 μM] % Inhibition” value is on record as 75%.

For the compound `COc1cc(C)c(S(=O)(=O)N(CCOCC(=O)NCC2CCC(C(c3cccc(F)c3)N(C)C)CC2)Cc2ccccc2)c(C)c1` (stereo not shown) [Example 388], the “B1R Ant. h [10 μM] % Inhibition” value was 74%.

Turning to `COc1ccc(S(=O)(=O)N2Cc3ccccc3CC2COCC(=O)NCCC2CCC(C(c3ccc(F)cc3)N(C)C)CC2)cc1` (stereo not shown) [Example 389], the “B1R Ant. h [10 μM] % Inhibition” value is 36%.

For the compound `CN(C)C(c1ccc(F)cc1)C1CCC(CNC(=O)COCCN(C)S(=O)(=O)c2cccc(C(F)(F)F)c2)CC1` (stereo not shown) [Example 390], the “B1R Ant. h [10 μM] % Inhibition” value turned out to be 55%.

As for `CN(C)C(c1ccc(F)cc1)C1CCC(CNC(=O)COC2CCN(S(=O)(=O)c3ccc(Cl)cc3Cl)C2)CC1` (stereo not shown) [Example 391], the “B1R Ant. h [10 μM] % Inhibition” value was 71%.

Take `COc1cc(C)c(S(=O)(=O)N(C)CCOCC(=O)NCCC2CCC(C(c3ccc(F)cc3)N(C)C)CC2)c(C)c1` (stereo not shown) [Example 392]: the “B1R Ant. h [10 μM] % Inhibition” value turned out to be 104%.

In the case of `Cc1cc(C)c(S(=O)(=O)N2CCC(OCC(=O)NCC3CCC(C(c4ccc(Cl)cc4)N(C)C)CC3)C2)c(C)c1` (stereo not shown) [Example 393], the “B1R Ant. h [10 μM] % Inhibition” value came to 97%.

Consider `CN(C)C(c1ccc(Cl)cc1)C1CCC(CNC(=O)COC2CCN(S(=O)(=O)c3ccc(F)cc3)C2)CC1` (stereo not shown) [Example 394], for which the “B1R Ant. h [10 μM] % Inhibition” value is 2%.

With `CN(C)C(c1ccc(Cl)cc1)C1CCC(CCNC(=O)COC2CCCN(S(=O)(=O)c3ccccc3)C2)CC1` (stereo not shown) [Example 395], the “B1R Ant. h [10 μM] % Inhibition” value worked out at 27%.

On to `CCN(CCOCC(=O)NC1CCC(C(c2ccc(F)cc2)N(C)C)CC1)S(=O)(=O)c1c(C)cc(OC)c(C)c1C` (stereo not shown) [Example 396], for which the “B1R Ant. h [10 μM] % Inhibition” value worked out at 70%.

With `COc1cc(C)c(S(=O)(=O)N2CCC(CCOCC(=O)NCCC3CCC(C(c4cccc(F)c4)N(C)C)CC3)CC2)c(C)c1C` (stereo not shown) [Example 397], the “B1R Ant. h [10 μM] % Inhibition” value was 2%.

In the case of `COc1ccc(S(=O)(=O)N2CCCCC2CCOCC(=O)NCCC2CCC(C(c3ccc(F)cc3)N(C)C)CC2)cc1` (stereo not shown) [Example 398], the “B1R Ant. h [10 μM] % Inhibition” value worked out at 80%.

Turning to `CN(C)C(c1ccc(F)cc1)C1CCC(CNC(=O)COCCN(C)S(=O)(=O)c2ccc(Cl)cc2)CC1` (stereo not shown) [Example 399], the “B1R Ant. h [10 μM] % Inhibition” value is given as 20%.

As to `CN(C)C(c1ccc(F)cc1)C1CCC(CNC(=O)COCCN(C)S(=O)(=O)c2ccc(F)cc2)CC1` (stereo not shown) [Example 400], the “B1R Ant. h [10 μM] % Inhibition” value came out at 3%.

Regarding `COc1ccc(S(=O)(=O)N(C)CCOCC(=O)NC2CCC(C(c3cccc(F)c3)N(C)C)CC2)cc1OC` (stereo not shown) [Example 401], the “B1R Ant. h [10 μM] % Inhibition” value is −19%.

`CN(C)C(c1ccc(F)cc1)C1CCC(CNC(=O)COC2CCN(S(=O)(=O)c3cccc(C(F)(F)F)c3)C2)CC1` (stereo not shown) [Example 402]: the “B1R Ant. h [10 μM] % Inhibition” value worked out at 0%.

With `COc1cc(C)c(S(=O)(=O)N2CCC(OCC(=O)NCC3CCC(C(c4ccc(Cl)cc4)N(C)C)CC3)C2)c(C)c1` (stereo not shown) [Example 403], the “B1R Ant. h [10 μM] % Inhibition” value is 106%.

Consider `CN(C)C(c1ccc(F)cc1)C1CCC(CNC(=O)COCCN(C)S(=O)(=O)c2c(Cl)cc(Cl)cc2Cl)CC1` (stereo not shown) [Example 404], for which the “B1R Ant. h [10 μM] % Inhibition” value is given as 104%.

`COc1ccc(S(=O)(=O)N2CCCCC2COCC(=O)NCC2CCC(C(c3ccc(F)cc3)N(C)C)CC2)c(OC)c1` (stereo not shown) [Example 405]: the “B1R Ant. h [10 μM] % Inhibition” value was found to be 5%.

With `CN(C)C(c1ccc(F)cc1)C1CCC(NC(=O)COCCN(C)S(=O)(=O)c2ccc(Cl)cc2)CC1` (stereo not shown) [Example 406], the “B1R Ant. h [10 μM] % Inhibition” value is reported as 5%.

Regarding `CN(C)C(c1cccc(F)c1)C1CCC(CCNC(=O)COC2CCN(S(=O)(=O)c3ccc(F)cc3)C2)CC1` (stereo not shown) [Example 407], the “B1R Ant. h [10 μM] % Inhibition” value was found to be 4%.

Take `CN(C)C(c1ccc(F)cc1)C1CCC(NC(=O)COC2CCN(S(=O)(=O)c3ccccc3)CC2)CC1` (stereo not shown) [Example 408]: the “B1R Ant. h [10 μM] % Inhibition” value is listed as −16%.

In the case of `COc1ccc(S(=O)(=O)N2CCCC2COCC(=O)NCCC2CCC(C(c3ccc(F)cc3)N(C)C)CC2)cc1` (stereo not shown) [Example 409], the “B1R Ant. h [10 μM] % Inhibition” value came to 45%.

Regarding `CN(C)C(c1ccc(Cl)cc1)C1CCC(CCNC(=O)COC2CCCCC2N(C)S(=O)(=O)c2ccc(Cl)c(Cl)c2)CC1` (stereo not shown) [Example 410], the “B1R Ant. h [10 μM] % Inhibition” value amounted to 1%.

With `CN(C)C(c1ccc(Cl)cc1)C1CCC(CNC(=O)COCCN(C)S(=O)(=O)c2ccc(OC(F)(F)F)cc2)CC1` (stereo not shown) [Example 411], the “B1R Ant. h [10 μM] % Inhibition” value amounted to 41%.

Turning to `COc1cc(C)c(S(=O)(=O)N2CCC(OCC(=O)NCCC3CCC(C(c4ccc(Cl)cc4)N(C)C)CC3)C2)c(C)c1C` (stereo not shown) [Example 412], the “B1R Ant. h [10 μM] % Inhibition” value came to 40%.

Regarding `CCN(CCOCC(=O)NCCC1CCC(C(c2ccc(F)cc2)N(C)C)CC1)S(=O)(=O)c1c(C)cc(OC)c(C)c1C` (stereo not shown) [Example 413], the “B1R Ant. h [10 μM] % Inhibition” value came to 96%.

Consider `COc1cc(C)c(S(=O)(=O)N(CCOCC(=O)NCC2CCC(C(c3cccc(F)c3)N(C)C)CC2)Cc2ccccc2)c(C)c1C` (stereo not shown) [Example 414], for which the “B1R Ant. h [10 μM] % Inhibition” value is recorded as 28%.

Regarding `CN(C)C(CCc1ccccc1)C1CCC(CNC(=O)COCC2CCCN2S(=O)(=O)c2ccc(Cl)c(Cl)c2)CC1` (stereo not shown) [Example 415], the “B1R Ant. h [10 μM] % Inhibition” value came to 96%.

On to `Cc1cc(C)c(S(=O)(=O)N(C)CCOCC(=O)NCCC2CCC(C(c3ccc(Cl)cc3)N(C)C)CC2)c(C)c1` (stereo not shown) [Example 416], for which the “B1R Ant. h [10 μM] % Inhibition” value is 104%.

As to `COc1cc(C)c(S(=O)(=O)N2CCCC(OCC(=O)NCC3CCC(C(c4ccc(F)cc4)N(C)C)CC3)C2)c(C)c1C` (stereo not shown) [Example 418], the “B1R Ant. h [10 μM] % Inhibition” value was 53%.
